Measured values: PubChem BioAssay (NCI)
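Results reflect a 48-hour exposure of cells in 96-well plates to compound at five concentrations. TGI: total growth inhibition.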

Tests used:
Test in all cases: NCI-60 cell line screen, 48 h
[1] = test system: OVCAR-4 ovarian
[2] = test system: HCT-15 colon
[3] = test system: U251 CNS
[4] = test system: NCI-H460 lung
[5] = test system: KM20L2 colon
[6] = test system: A549 NSCLC
[7] = test system: KM12 colon
[8] = test system: SK-OV-3 ovarian
[9] = test system: M19-MEL melanoma
[10] = test system: UO-31 renal
[11] = test system: SNB-75 CNS
[12] = test system: OVCAR-3 ovarian
[13] = test system: MALME-3M melanoma
[14] = test system: HL-60(TB) leukemia
[15] = test system: SF-268 CNS
[16] = test system: SR leukemia
[17] = test system: SF-295 CNS
[18] = test system: COLO 205 colon
[19] = test system: EKVX NSCLC
[20] = test system: K-562 leukemia
[21] = test system: OVCAR-8 ovarian
[22] = test system: CCRF-CEM leukemia
[23] = test system: CAKI-1 renal
[24] = test system: LXFL 529 NSCLC
[25] = test system: IGROV1 ovarian
[26] = test system: RXF-631 renal
[27] = test system: HOP-92 NSCLC
[28] = test system: SK-MEL-5 melanoma
[29] = test system: SF-539 CNS
[30] = test system: NCI-H226 lung
[31] = test system: TK-10 renal
[32] = test system: UACC-62 melanoma
[33] = test system: UACC-257 melanoma
[34] = test system: HT29 colon
[35] = test system: DMS 273 small cell lung
[36] = test system: SNB-78 CNS
[37] = test system: 786-0 renal
[38] = test system: RXF 393 renal
[39] = test system: HOP-62 NSCLC
[40] = test system: SW-620 colon
[41] = test system: LOX IMVI melanoma
[42] = test system: DLD-1 colon
[43] = test system: NCI-H522 lung
[44] = test system: M14 melanoma
[45] = test system: RPMI-8226 leukemia
[46] = test system: DMS 114 small cell lung
[47] = test system: NCI-H23 lung
[48] = test system: A498 renal
[49] = test system: HCC-2998 colon
[50] = test system: SN12C renal
[51] = test system: XF 498 CNS
[52] = test system: HCT-116 colon
[53] = test system: SNB-19 CNS
[54] = test system: MOLT-4 leukemia
[55] = test system: ACHN renal
[56] = test system: OVCAR-5 ovarian
[57] = test system: SK-MEL-2 melanoma
[58] = test system: SK-MEL-28 melanoma

Measured: TGI

Cc1ccc(S(=O)(=O)C(CC(NC=O)S(=O)(=O)c2ccc(C)cc2)NC=O)cc1 (centres undefined)
not listed: [55] | [56] | [57] | [58]
> 100 µM: all other assays above

CCC1=CCN(c2ccc(C)cc2)OC1c1ccc(OC)cc1 (centres undefined)
not listed: [27] | [28] | [48]
> 100 µM: all other assays above
